Reference: patent publication US11406592B2, “Drug delivery methods, structures, and compositions for nasolacrimal system” (Mati Therapeutics Inc., priority 2006, dated 2022)

Assays:
[1] = Latanoprost drug core elution study (in vitro), 7.4 pH buffer, HPLC; assay type: physicochemical; settings: for Duration: calculated time when ~10% of original drug remains
Excerpt: Drug cores as described above have been fabricated with different cross sectional sizes of 0.006 inches, 0.012 inches, and 0.025 inches, and drug concentrations of 5%, 10% and 20% in a silicone matrix. Theses drug cores can be made with a Syringe Tube and Cartridge Assembly, Mixing Latanoprost with Silicone, and Injecting the mixture into a polyimide tube which is cut to desired lengths and sealed. The length of the drug cores were approximately 0.80 to 0.95 mm, which for a diameter of 0.012 inches (0.32 mm) corresponds to total Latanoprost content in the drug cores of approximately 3.5 μg, 7 μg and 14 μg for concentrations of 5%, 10% and 20%, respectively.
Syringe Tube and Cartridge Assembly. 1. Take polyimide tubing of three different diameters 0.006 inches, 0.0125 inches and 0.025 inches. 2. Cut polyimide tubing of different diameters to ˜15 cm length. 3. Insert Polyimide tubes into a Syringe Adapter. 4. Adhesive bond polyimide tube into luer adapter (Loctite, low viscosity UV cure). 5. Trim end of assembly. 6. Clean the cartridge assembly using distilled water and then with methanol and dry it in oven at 60° C.
Mix Latanoprost with Silicone. Prepare Latanoprost. Latanoprost is provided as a 1% solution in methylacetate. Place the appropriate amount of solution into a dish and using a nitrogen stream, evaporate the solution until only the Latanoprost remains. Place the dish with the Latanoprost oil under vacuum for 30 minutes. Combine Latanoprost with silicone. Prepare three different concentrations of Latanoprost (5%, 10% and 20%) in silicon Nusil 6385 and inject it into tubing of different diameters (0.006 in, 0.012 in and 0.025 inches) to generate 3×3 matrixes. The percent of Latanoprost to silicone is determined by the total weight of the drug matrix. Calculation: Weight of Latanoprost/(weight of Latanoprost+weight of silicone)×100=percent drug.
Inject tube. 1. Insert Cartridge and Polyimide tubes assembly into 1 ml syringe. 2. Add one drop of catalyst, (MED-6385 Curing Agent) in the syringe. 3. Force excess catalyst out of the polyimide tube with clean air. 4. Fill syringe with silicone drug matrix. 5. Inject tube with drug matrix until the tube is filled or the syringe plunger becomes too difficult to push. 6. Close off the distal end of the polyimide tube and maintain pressure until the silicone begins to solidify. 7. Allow to cure at room temperature for 12 hours. 8. Place under vacuum for 30 minutes. 9. Place tube in right size trim fixture (prepared in house to hold different size tubing) and cut drug inserts to length (0.80-0.95 mm).
Testing. Elution study (in vitro). 1. Place 10 plugs of same size and same concentration per centrifuge tube and add 1.5 ml of 7.4 pH buffer solution to it. 2. Change the solvent with fresh 7.4 pH buffer after appropriate time. 3. Take HPLC of the eluant at 210 nm with PDA detector 2996 using Sunfire C18, 3 mm×10 mm column (Waters Corporation, Milford, Mass.). Acetonitrile and water mixture is used for gradient elution. Calibration was done in house before and after each analysis, using in-house standards with precisely weighed concentration of Latanoprost. 4. Calculate the amount of drug release per day per device for different size tubings having different concentrations of Latanoprost. 5. Plot elution rate vs area and concentration for day 1 and day 14.

[2] = Latanoprost elution from drug cores of four formulations (silicone 4011, 6385 and/or NaCl); assay type: physicochemical; settings: formulations A-D, non-sterile drug cores
Excerpt: Drug cores were manufactured as described above with Latanoprost and silicone 4011, 6385 and/or NaCl. Four formulations were manufactured as follows: A) silicone 4011, approximately 20% Latanoprost, and approximately 20% NaCL; B) silicone 4011, approximately 20% Latanoprost, and approximately 10% NaCl; C) silicone 4011, approximately 10% Latanoprost, and approximately 10% NaCl; and D) silicone 6385, approximately 20% Latanoprost. […] The results shown are for non-sterile drug cores. Similar results have been obtained with sterile drug cores of Latanoprost.

[3] = system: IOP; settings: cited from earlier work
[4] = Bimatoprost bulk sample elution, normalized to ng per device per day; assay type: physicochemical; settings: for zero order elution rate: about 90 days
Procedure: Bulk samples of 1% Bimatoprost having a known diameter of 0.076 cm (0.76 mm) were prepared. The height of each sample was determined from the weight and known diameter of the sample.
The calculated heights ranged from 0.33 cm to 0.42 cm. The exposed surface area on each end of each bulk sample was approximately 0.045 cm^2, providing volumes of 0.019 cm^3 and 0.015 cm^3 for the 0.42 and 0.33 cm samples, respectively. The exposed an exposed surface area of samples calculated from the height and diameter without a drug sheath was approximately 0.1 cm^2. Three formulations were evaluated: 1) silicone 4011, 1% Bimatoprost, 0% surfactant; 2) silicone 4011, 1% Bimatoprost, approximately 11% surfactant; and 3) silicone 4011, 1% Bimatoprost, approximately 33% surfactant. The elution data measured for the bulk samples with formulation 1, 2 and 3 were normalized to ng per device per day (ng/device/day) assuming a surface area of the bulk device is 0.1 cm^2 and the surface area of the clinical device is 0.00078 cm^2 (0.3 mm diameter). […] The normalized elution profile is about 10 ng per day. […] Similar formulations can be used with drug core sheaths and a shaped exposed surface of the core exposed to the tear to increase the exposed surface area as described above and deliver the drug in therapeutic amounts over an extended period.
In some embodiments, the core can comprise a 0.76 mm diameter core with an exposed surface diameter of 0.76 mm, corresponding to an exposed surface area of 0.0045 cm^2. The core can be covered with a sheath to define the exposed surface of the core as described above The normalized elution profile for such a device, based on the bulk sample data above, is approximately 6 times (0.0045 cm^2/0.00078 cm^2) the elution profile for the device with a 0.3 mm diameter exposed surface area. Thus, a zero order elution profile with an elution rate of about 60 ng per day can be obtained over a period of about 90 days. If the exposed surface area is increased to about 0.0078 cm2, for example with many of the exposed surface shapes as described above, the zero order elution rat is about 100 ng per day over a period of about 90 days. The concentration can also be increased from 1%. Similar elution profiles can be obtained with Latanoprost.

Question: What does the source list for `CC(C)OC(=O)CCC/C=C\C[C@@H]1[C@@H](CC[C@@H](O)CCc2ccccc2)[C@H](O)C[C@@H]1O` [Latanoprost]?
Answer: elution rate compared with the 14 μg core ([1]; 7 μg core (10%), 0.32 mm diameter, 0.95 mm long, from 10 to 20 days): comparable rates; elution rate ([1]; 14 μg core (20%), 0.32 mm diameter, 0.95 mm long, from about 10 to 40 days): approximately 100 ng per day; initial elution of Latanoprost from the plug ([1]; buffered saline elution system, initially): approximately 500 ng per day; elution of Latanoprost from the plug after drop-off ([1]; buffered saline elution system, within 7-14 days, depending on initial concentration): approximately 100 ng/day; quantity of Latanoprost released ([1]; day 1, 0.006 inch diameter core (exposed surface area 0.02 mm^2)): about 200 ng; quantity of Latanoprost released ([1]; day 1, 0.012 inch diameter core (exposed surface area 0.07 mm^2)): ~400 ng; quantity of Latanoprost released ([1]; day 1, 0.025 inch diameter core (exposed surface area 0.32 mm^2)): ~1200 ng; quantity of Latanoprost released ([1]; day 14, 0.006 inch diameter core (exposed surface area 0.02 mm^2)): about 25 ng; quantity of Latanoprost released ([1]; day 14, 0.012 inch (0.32 mm) diameter core (exposed surface area 0.07 mm^2)): ~100 ng; quantity of Latanoprost released ([1]; day 14, 0.025 inch diameter core (exposed surface area 0.32 mm^2)): ~300 ng; Duration ([1]; total Latanoprost content 3.5 μg): ~25 days; Duration ([1]; total Latanoprost content 7 μg): ~45 days; Duration ([1]; total Latanoprost content 14 μg): ~100 days; elution rate ([2]; by 3 weeks (21 days)): about 100 ng per device per day; initial elution rate ([2]; initial): approximately 300 ng per device per day; time effective in lowering IOP ([3]; about 200 ng of drug remaining on the eye after a drop of Xalatan): at least 24 hours; IOP reduction relative to the 50 μg/mL QD dose ([3]; lowest doses of 12.5 μg/mL QD or 15 μg/mL BID): 60-75%

Question: For `CCNC(=O)CCC/C=C\C[C@@H]1[C@@H](/C=C/[C@@H](O)CCc2ccccc2)[C@H](O)C[C@@H]1O` [Bimatoprost], which release kinetics ([4]; each of formulations 1-3, from about ten days to about 90 days) is on record?
Answer: approximately zero order release kinetics

Question: And the “zero order elution rate” value ([4]; extrapolated from bulk data to 0.76 mm exposed surface diameter (0.0045 cm^2))?
Answer: about 60 ng per day

Question: What about the “zero order elution rate” value ([4]; extrapolated from bulk data to exposed surface area about 0.0078 cm2) of the same compound?
Answer: about 100 ng per day

Question: And the normalized elution profile ([4]; silicone 4011 with 1% Bimatoprost, formulations 1-3 (0%, 11%, 33% surfactant), normalized to 0.3 mm exposed surface diameter (0.00078 cm^2))?
Answer: about 10 ng per day
